The source of these data is ChEMBL document CHEMBL4190183 (Medchemcomm, 2016).

Structures are written as SMILES. Converted amounts (≈) assume the structure as drawn. The source made the active and inactive calls. No cut-off for these calls is given here.

In general, share remaining refers to what is left of the initial amount, in per cent. For orientation: IC50 means the concentration that inhibits the measured activity by half. One may read the half-life as how long it takes for the measured level to halve. A lower half-life goes with fast loss. Usually inhibition stands for the percentage by which the read-out fell short of the control. What is called solubility (kinetic) is the concentration staying in solution when a stock, usually in DMSO, is diluted into the medium.

In data set [1] the test system is HepG2. The experiment in a line: Induction of cell death in human HepG2 cells at 0.625 uM after 48 hrs by MTT assay. The data set is classed as functional, cell-based.
Data set [2] in a line: Retention time of the compound by LC-MS/MS analysis. The class given is physicochemical.
For data set [3], the system named is HepG2. The experiment in a line: Antiproliferative activity against human HepG2 cells assessed as decrease in PCNA expression level at 10 to 20 uM after 48 hrs by Western blot analysis. The class given is functional, cell-based. (A western blot detects proteins with antibodies after separation by electrophoresis.)
The subject of data set [4] is HepG2. As to the kind of experiment: Antimetastatic activity against human HepG2 cells assessed as wound healing at 20 uM after 12 hrs by microscopic method (reference value: 21%). The data set is classed as functional.
The target of data set [5] is T1, DNA ligase 1 (Homo sapiens, UniProt P18858). As to the kind of experiment: Binding affinity to human N-terminal His-tagged DNA ligase 1 DBD expressed in Escherichia coli BL21(DE3)RP cells at 10 uM by fluorescence spectroscopic analysis.
The species entered for data set [6] is Mesocricetus auratus. The experiment in a line: Metabolic stability in hamster liver microsomes assessed as parent compound remaining at 1 uM after 60 mins in presence of NADPH by LC-MS/MS analysis. Particulars: golden Syrian hamster.
A short description of data set [7]: Protein binding in hamster plasma at 10 uM at pH 7.4 incubated for 30 mins measured after 10 hrs by LC-MS/MS based equilibrium dialysis method. The class given is ADME, cell-free, Cricetulus griseus. Conditions: chinese hamster, read-out: PPB. A general note: Equilibrium dialysis compares concentrations on both sides of a semipermeable membrane.
In another data set the test system is MDA-MB-231. As to the kind of experiment: Cytotoxicity against human MDA-MB-231 cells assessed as cell death at 10 uM after 48 hrs by MTT assay relative to control. The data set is classed as functional. On the technique in general: Formazan colour is commonly taken as a measure of viable cells.
For data set [8], the system named is HepG2. The experiment in a line: Cytotoxicity against human HepG2 cells assessed as decrease in cell viability after 48 hrs by MTT assay. The data set is classed as functional, cell-based.
Another data set relates to HCT-116. The experiment in a line: Cytotoxicity against human HCT116 cells assessed as cell death at 10 uM after 48 hrs by MTT assay relative to control. The class given is functional.
The species entered for data set [9] is Mesocricetus auratus. As to the kind of experiment: Half life in hamster liver microsomes at 1 uM by LC-MS/MS analysis. Conditions: golden Syrian hamster.
Data set [10] deals with DNA. The experiment in a line: Inhibition of EtBr binding to Escherichia coli pUC18 DNA up to 400 uM after 30 mins by fluorescence spectroscopic analysis. The class given is nucleic-acid assay.
In data set [11] the test system is HepG2. As to the kind of experiment: Synergistic cytotoxicity against human HepG2 cells assessed as induction of cell death at 5 uM after 48 hrs in presence of 0.625 uM doxorubicin by MTT assay. The class given is functional, cell-based.
The subject of data set [12] is DNA. The experiment in a line: Induction of linearized Escherichia coli pUC18 DNA intercalation up to 600 uM after 30 mins by agarose gel electrophoresis method. The data set is classed as nucleic-acid assay.
The subject of another data set is HEK293. The experiment in a line: Cytotoxicity against HEK293 cells assessed as cell death at 10 uM after 48 hrs by MTT assay relative to control. The data set is classed as cell-based. Conditions: human, hek293, 48 h.
The nature of data set [13]: Stability of the compound in simulated intestinal fluid at 5 uM at pH 6.8 measured up to 120 mins by LC-MS/MS analysis. Conditions: simulated gi fluid, pH 6.8, 2 h. The data set is classed as ADME.
For data set [14], the system named is HepG2. As to the kind of experiment: Antimetastatic activity against human HepG2 cells assessed as wound healing at 10 uM after 12 hrs by microscopic method (reference value: 21%). The data set is classed as functional.
A further data set concerns A549. As to the kind of experiment: Cytotoxicity against human A549 cells assessed as cell death at 10 uM after 48 hrs by MTT assay relative to control. The data set is classed as functional.
Data set [15] concerns HepG2. The experiment in a line: Induction of apoptosis in human HepG2 cells assessed as increase in p53 expression levels at 10 to 20 uM after 48 hrs by Western blot analysis. The class given is functional, cell-based.
For data set [16], the system named is HepG2. The experiment in a line: Cell cycle arrest in human HepG2 cells assessed as accumulation at G0/G1 phase at 10 uM after 12 hrs by propidium iodide staining based flow cytometry (reference value: 42.7 +/- 1.5%). The class given is functional.
For data set [17], the target named is T1, DNA ligase 1. The experiment in a line: Inhibition of human DNA ligase 1 expressed in Escherichia coli BL21(DE3)RP cells assessed as reduction in nick sealing activity using fluorescently labelled ds nicked DNA as substrate after 30 mins by urea gel based imaging method.
Data set [18] concerns HepG2. As to the kind of experiment: Cell cycle arrest in human HepG2 cells assessed as accumulation at G0/G1 phase at 10 uM after 24 hrs by propidium iodide staining based flow cytometry (reference value: 56.8 +/- 1.16%). The data set is classed as functional.
Data set [19] has as its target T1, DNA ligase 1. The experiment in a line: Binding affinity to human N-terminal His-tagged DNA ligase 1 DBD expressed in Escherichia coli BL21(DE3)RP cells at 1.25 to 5 uM by CD spectroscopic method.
The target of data set [20] is T1, DNA ligase 1. The experiment in a line: Binding affinity to human full length N-terminal His-tagged DNA ligase 1 expressed in Escherichia coli BL21(DE3)RP cells at 1.25 to 5 uM by CD spectroscopic method.
For data set [21], the system named is HepG2. As to the kind of experiment: Cell cycle arrest in human HepG2 cells assessed as accumulation at G0/G1 phase at 20 uM after 12 hrs by propidium iodide staining based flow cytometry (reference value: 42.7 +/- 1.5%). The class given is functional.
Data set [22] relates to HepG2. As to the kind of experiment: Anticlonogenic activity against human HepG2 cells at >= 10 uM incubated for 48 hrs measured after 10 days by crystal violet staining based microscopy. The data set is classed as functional, cell-based.
Data set [23] in a line: Aqueous solubility of the compound in triple distilled water at 1 to 1000 uM after 2 hrs by nephelometric method. The class given is physicochemical.
In data set [24] the target is T1, DNA ligase 1. As to the kind of experiment: Binding affinity to human full length N-terminal His-tagged DNA ligase 1 expressed in Escherichia coli BL21(DE3)RP cells at 10 uM by fluorescence spectroscopic analysis.
Data set [25] relates to HepG2. The experiment in a line: Antimetastatic activity against human HepG2 cells assessed as wound healing at 20 uM after 18 hrs by microscopic method (reference value: 32%). The data set is classed as functional.
Data set [26] addresses T1, DNA ligase 1. The experiment in a line: Binding affinity to human full length N-terminal His-tagged DNA ligase 1 expressed in Escherichia coli BL21(DE3)RP cells assessed as destabilization of enzyme-nicked oligo DNA complex after 2 hrs by electrophoretic mobility shift assay.
Data set [27] has as its target T1, DNA ligase 1. The experiment in a line: Inhibition of human DNA ligase 1 expressed in Escherichia coli BL21(DE3)RP cells assessed as reduction in fluorescently labelled ds nicked DNA substrate ligation at 100 uM after 30 mins by urea gel based imaging method relative to control.
In data set [28] the test system is HepG2. As to the kind of experiment: Induction of cell death in human HepG2 cells at 5 uM after 48 hrs by MTT assay. The data set is classed as functional, cell-based.
The subject of data set [29] is HepG2. The experiment in a line: Cytotoxicity against human HepG2 cells assessed as cell death at 10 uM after 48 hrs by MTT assay relative to control. The data set is classed as functional.
Data set [30] concerns HepG2. As to the kind of experiment: Cell cycle arrest in human HepG2 cells assessed as accumulation at G0/G1 phase at 20 uM after 24 hrs by propidium iodide staining based flow cytometry (reference value: 56.8 +/- 1.16%). The data set is classed as functional.
Data set [31] is filed under the species Mesocricetus auratus. As to the kind of experiment: Intrinsic clearance in hamster liver microsomes at 1 uM by LC-MS/MS analysis. Particulars: golden Syrian hamster.
The target in data set [32] is T1, DNA ligase 1. The experiment in a line: Residual activity of human DNA ligase 1 expressed in Escherichia coli BL21(DE3)RP cells assessed as DNA ligation at 100 uM using fluorescently labelled ds nicked DNA as substrate after 30 mins by urea gel based imaging method relative to control.
Data set [33] has as its system HepG2. The experiment in a line: Induction of apoptosis in human HepG2 cells after 48 hrs by Annexin-V/PI staining based flow cytometry. The data set is classed as functional, cell-based.
Data set [34] concerns HepG2. The experiment in a line: Antimetastatic activity against human HepG2 cells assessed as wound healing at 10 uM after 18 hrs by microscopic method (reference value: 32%). The data set is classed as functional.
A further data set deals with DLD-1. As to the kind of experiment: Cytotoxicity against human DLD1 cells assessed as cell death at 10 uM after 48 hrs by MTT assay relative to control. The class given is functional.
The nature of data set [35]: Stability of the compound in simulated gastric fluid at 5 uM at pH 1.2 measured up to 60 mins by LC-MS/MS analysis. Conditions: simulated gi fluid, pH 1.2, 1 h. The data set is classed as ADME.
For data set [36], the system named is HepG2. The experiment in a line: Induction of DNA damage in human HepG2 cells assessed as increase in gamma-H2AX expression levels at 10 to 20 uM after 48 hrs by Western blot analysis. The data set is classed as functional, cell-based.

T1 sequence (P18858 whole entry): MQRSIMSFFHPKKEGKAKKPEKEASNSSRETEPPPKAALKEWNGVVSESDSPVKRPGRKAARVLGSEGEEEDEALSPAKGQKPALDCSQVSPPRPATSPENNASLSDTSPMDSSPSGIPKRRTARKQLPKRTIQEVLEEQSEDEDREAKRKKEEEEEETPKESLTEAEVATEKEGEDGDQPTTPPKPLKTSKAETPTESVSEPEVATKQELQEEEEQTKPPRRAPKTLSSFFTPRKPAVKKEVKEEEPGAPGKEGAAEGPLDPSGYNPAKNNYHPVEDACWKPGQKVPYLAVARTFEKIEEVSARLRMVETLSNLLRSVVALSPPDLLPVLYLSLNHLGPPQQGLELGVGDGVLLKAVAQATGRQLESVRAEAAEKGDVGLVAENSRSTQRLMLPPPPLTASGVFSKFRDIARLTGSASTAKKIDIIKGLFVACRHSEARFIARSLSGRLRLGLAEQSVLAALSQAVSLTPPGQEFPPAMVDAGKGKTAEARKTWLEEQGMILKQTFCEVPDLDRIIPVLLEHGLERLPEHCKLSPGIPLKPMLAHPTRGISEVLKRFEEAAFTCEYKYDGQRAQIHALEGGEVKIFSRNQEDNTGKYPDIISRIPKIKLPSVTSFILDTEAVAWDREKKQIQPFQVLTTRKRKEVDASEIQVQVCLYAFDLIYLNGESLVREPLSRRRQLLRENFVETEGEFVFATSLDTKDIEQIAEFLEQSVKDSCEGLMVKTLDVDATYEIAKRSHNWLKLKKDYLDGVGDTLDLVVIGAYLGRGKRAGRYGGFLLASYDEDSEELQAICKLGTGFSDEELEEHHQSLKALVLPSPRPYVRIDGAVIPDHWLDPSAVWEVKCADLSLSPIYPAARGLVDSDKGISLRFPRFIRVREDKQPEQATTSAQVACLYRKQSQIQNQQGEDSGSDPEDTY

For the molecule `COc1cccc2c1C(=O)c1c(O)c3c(c(O)c1C2=O)C[C@@](O)(C(=O)CO)C[C@@H]3O[C@H]1C[C@H](N)[C@H](O)[C@H](C)O1`, the outcome in the data set on HepG2 [1] was Active.
For `OC(Cn1cncn1)(Cn1cncn1)c1ccc(F)cc1F` [FLUCONAZOLE], the Retention_time in [2] came out at 2.08 min.
Take `CCOC(=O)C1=C(C)NC(=O)NC1c1cc(/C=N/NC(=O)Nc2cccc(OC)c2)c(O)c(C(C)(C)C)c1` (configuration not stated): the result with HepG2 [3], at DNA ligase 1 [5], in the data set with HepG2 [11], in the data set with HepG2 [15], on DNA ligase 1 [19] and on DNA ligase 1 [20] was Active. Besides, the outcome in the data set on HepG2 [22], on DNA ligase 1 [24], with HepG2 [28] and in the data set with HepG2 [36] was Active. Also, the Activity with HepG2 [4] was 7.5%; in the data set on MDA-MB-231, 28.4%; in the data set on HepG2 [8], “Dose-dependent effect”; in the data set on HCT-116 it was 18.2%; in the data set with HEK293, 11.7%; in the data set on HepG2 [14], 11.2%. The Activity in the data set with A549 is 18.1%; with HepG2 [16] it was 59.1%; in the data set on HepG2 [18], 68.1%; with HepG2 [21], 64%; in the data set with HepG2 [25], 5.5%; at DNA ligase 1 [26], “Dose-dependent effect”. Further, the Activity with HepG2 [29] was 52.2%; in the data set with HepG2 [30] it was 84.8%; in the data set on HepG2 [33], “Dose-dependent effect”; in the data set on HepG2 [34] it was 16.4%; in the data set with DLD-1, 29.4%. In addition, the amount remaining at 1 h, 1 µM in the data set listed under Mesocricetus auratus [6] was 12.9%. For the same molecule, the fraction unbound at 10 h, 10 µM in [7] worked out at 0.0098. Besides, the IC50 in the data set with HepG2 [8] (HepG2, 48 h) came out at 10.6 µM; on DNA ligase 1 [17], 12.4 µM. For the same molecule, the half-life at 1 µM in the data set filed under Mesocricetus auratus [9] was 20.8 min. In addition, in the data set with DNA [10], the inhibition entry is “inactive”. In addition, the result with DNA [12] was inactive. In addition, the Stability entry in [13] and in data set [35] was “Stable” in each case. In addition, the inhibition result at DNA ligase 1 [17] is “Dose-dependent effect”; at DNA ligase 1 [27], 82.7%. Also, the kinetic solubility at 2 h in data set [23] turned out to be 30 µM (≈ 15.7 µg/mL). In addition, in data set [2], the Retention_time is 2.98 min. In the data set listed under Mesocricetus auratus [31], this molecule displayed a CLH of 33.29 µL/min/mg. Further, at DNA ligase 1 [32], the ligation is 17.4%.
On to `CCOC(=O)C1=C(C)NC(=O)NC1c1cc(/C=N/NC(=S)Nc2ccccc2)c(O)c(C(C)(C)C)c1` (configuration not stated), for which the Activity in the data set with MDA-MB-231 came to 50.4%; in the data set on HCT-116, 43.2%; in the data set with HEK293, 48.3%; in the data set with A549 it was 48.7%; in the data set with HepG2 [29], 43%; in the data set on DLD-1, 30%. Also, the inhibition on DNA ligase 1 [27] turned out to be 88.1%. In addition, the ligation at DNA ligase 1 [32] came to 12%.
